Data as given in patent US20230257396A1, “MACROCYCLES AND THEIR USE” (BLOSSOMHILL THERAPEUTICS, INC., priority 2020, published 2023).

Legend:
Test in all cases: KINOMEscan kinase binding assay (Eurofins/DiscoveRx), % Ctrl
kinases [1] = target: T1, kinases (Homo sapiens, UniProt P36888, K663Q); details: 1 μM; FLT3(K663Q)
T1 construct: purchased Eurofins/DiscoveRx; host or cells: E. coli BL21-derived host (T7 phage display) for most kinases; HEK-293 for the rest
T1 sequence (P36888 27-993 K663Q): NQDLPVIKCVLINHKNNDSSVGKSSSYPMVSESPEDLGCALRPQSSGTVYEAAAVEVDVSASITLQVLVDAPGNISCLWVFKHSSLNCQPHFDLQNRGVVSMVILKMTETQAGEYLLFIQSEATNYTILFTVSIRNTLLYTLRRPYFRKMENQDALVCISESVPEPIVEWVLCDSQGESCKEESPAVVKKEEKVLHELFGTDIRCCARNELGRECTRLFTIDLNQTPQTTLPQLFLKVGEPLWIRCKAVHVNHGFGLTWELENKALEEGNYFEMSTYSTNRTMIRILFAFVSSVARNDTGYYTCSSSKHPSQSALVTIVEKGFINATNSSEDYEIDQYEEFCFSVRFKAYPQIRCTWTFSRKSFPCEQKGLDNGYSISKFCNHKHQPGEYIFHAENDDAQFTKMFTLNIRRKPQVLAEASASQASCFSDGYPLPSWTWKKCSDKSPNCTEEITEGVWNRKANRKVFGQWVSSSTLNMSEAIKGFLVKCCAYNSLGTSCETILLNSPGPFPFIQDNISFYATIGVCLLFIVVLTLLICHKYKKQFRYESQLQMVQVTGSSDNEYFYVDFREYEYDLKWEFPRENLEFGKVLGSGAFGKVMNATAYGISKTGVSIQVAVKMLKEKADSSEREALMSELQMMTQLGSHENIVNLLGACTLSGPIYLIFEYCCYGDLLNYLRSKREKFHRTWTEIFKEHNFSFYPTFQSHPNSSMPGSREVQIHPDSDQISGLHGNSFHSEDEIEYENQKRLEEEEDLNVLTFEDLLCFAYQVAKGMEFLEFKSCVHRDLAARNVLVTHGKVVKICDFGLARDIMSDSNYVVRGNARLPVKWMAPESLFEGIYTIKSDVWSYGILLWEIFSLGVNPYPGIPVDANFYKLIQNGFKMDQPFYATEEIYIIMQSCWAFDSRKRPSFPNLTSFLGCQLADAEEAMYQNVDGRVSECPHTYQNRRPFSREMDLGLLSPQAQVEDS
Method in brief: (§1)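 Read-out is qPCR of kinase eluted from ligand-coated streptavidin beads after 1 h room-temperature competition with test compound. Values are % Ctrl at the tested concentration, lower meaning tighter binding.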

kinases [2] = target: T2, kinases (Homo sapiens, UniProt P00519, E255K); details: 1 μM; ABL1(E255K)-phosphorylated
T2 construct: purchased Eurofins/DiscoveRx; host or cells: E. coli BL21-derived host (T7 phage display) for most kinases; HEK-293 for the rest
Method in brief: as §1

kinases [3] = target: T3, kinases (Homo sapiens, UniProt P00533, G719C); details: 1 μM; EGFR(G719C)
T3 construct: purchased Eurofins/DiscoveRx; host or cells: E. coli BL21-derived host (T7 phage display) for most kinases; HEK-293 for the rest
Method in brief: as §1

kinases [4] = target: T4, kinases (Homo sapiens, UniProt P10721, D816V); details: 1 μM; KIT(D816V)
T4 construct: purchased Eurofins/DiscoveRx; host or cells: E. coli BL21-derived host (T7 phage display) for most kinases; HEK-293 for the rest
T4 sequence (P10721 26-976 D816V): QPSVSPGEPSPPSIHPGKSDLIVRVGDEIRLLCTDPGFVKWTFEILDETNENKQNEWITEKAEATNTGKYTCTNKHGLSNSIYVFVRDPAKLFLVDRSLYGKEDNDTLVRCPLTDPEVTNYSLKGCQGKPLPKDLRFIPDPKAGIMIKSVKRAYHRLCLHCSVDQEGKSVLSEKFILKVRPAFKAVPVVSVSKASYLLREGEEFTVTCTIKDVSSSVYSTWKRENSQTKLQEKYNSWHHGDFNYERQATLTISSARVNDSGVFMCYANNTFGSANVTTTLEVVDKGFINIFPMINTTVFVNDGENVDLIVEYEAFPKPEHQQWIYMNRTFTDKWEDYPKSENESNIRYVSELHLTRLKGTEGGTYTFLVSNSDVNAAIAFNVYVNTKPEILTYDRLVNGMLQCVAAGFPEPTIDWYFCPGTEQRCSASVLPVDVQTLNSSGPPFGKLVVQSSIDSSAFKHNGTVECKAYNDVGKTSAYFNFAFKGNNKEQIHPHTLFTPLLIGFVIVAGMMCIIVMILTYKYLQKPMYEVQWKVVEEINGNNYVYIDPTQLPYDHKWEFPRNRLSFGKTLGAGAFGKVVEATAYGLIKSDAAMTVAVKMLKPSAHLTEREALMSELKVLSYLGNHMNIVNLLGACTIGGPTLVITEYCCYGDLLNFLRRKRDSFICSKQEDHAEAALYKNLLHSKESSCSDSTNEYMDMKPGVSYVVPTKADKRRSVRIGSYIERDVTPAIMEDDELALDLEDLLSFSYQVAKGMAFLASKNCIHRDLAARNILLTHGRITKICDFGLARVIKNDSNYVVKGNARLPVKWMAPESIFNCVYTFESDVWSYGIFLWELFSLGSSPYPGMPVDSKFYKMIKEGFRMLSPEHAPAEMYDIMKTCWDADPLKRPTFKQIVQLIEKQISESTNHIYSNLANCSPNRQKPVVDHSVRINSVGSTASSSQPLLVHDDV
Method in brief: as §1

kinases [5] = target: T5, kinases (Homo sapiens, UniProt P00533, G719S); details: 1 μM; EGFR(G719S)
T5 construct: purchased Eurofins/DiscoveRx; host or cells: E. coli BL21-derived host (T7 phage display) for most kinases; HEK-293 for the rest
Method in brief: as §1

kinases [6] = target: T6, kinases (Homo sapiens, UniProt P07949, V804L); details: 1 μM; RET(V804L)
T6 construct: purchased Eurofins/DiscoveRx; host or cells: E. coli BL21-derived host (T7 phage display) for most kinases; HEK-293 for the rest
T6 sequence (P07949 29-1114 V804L): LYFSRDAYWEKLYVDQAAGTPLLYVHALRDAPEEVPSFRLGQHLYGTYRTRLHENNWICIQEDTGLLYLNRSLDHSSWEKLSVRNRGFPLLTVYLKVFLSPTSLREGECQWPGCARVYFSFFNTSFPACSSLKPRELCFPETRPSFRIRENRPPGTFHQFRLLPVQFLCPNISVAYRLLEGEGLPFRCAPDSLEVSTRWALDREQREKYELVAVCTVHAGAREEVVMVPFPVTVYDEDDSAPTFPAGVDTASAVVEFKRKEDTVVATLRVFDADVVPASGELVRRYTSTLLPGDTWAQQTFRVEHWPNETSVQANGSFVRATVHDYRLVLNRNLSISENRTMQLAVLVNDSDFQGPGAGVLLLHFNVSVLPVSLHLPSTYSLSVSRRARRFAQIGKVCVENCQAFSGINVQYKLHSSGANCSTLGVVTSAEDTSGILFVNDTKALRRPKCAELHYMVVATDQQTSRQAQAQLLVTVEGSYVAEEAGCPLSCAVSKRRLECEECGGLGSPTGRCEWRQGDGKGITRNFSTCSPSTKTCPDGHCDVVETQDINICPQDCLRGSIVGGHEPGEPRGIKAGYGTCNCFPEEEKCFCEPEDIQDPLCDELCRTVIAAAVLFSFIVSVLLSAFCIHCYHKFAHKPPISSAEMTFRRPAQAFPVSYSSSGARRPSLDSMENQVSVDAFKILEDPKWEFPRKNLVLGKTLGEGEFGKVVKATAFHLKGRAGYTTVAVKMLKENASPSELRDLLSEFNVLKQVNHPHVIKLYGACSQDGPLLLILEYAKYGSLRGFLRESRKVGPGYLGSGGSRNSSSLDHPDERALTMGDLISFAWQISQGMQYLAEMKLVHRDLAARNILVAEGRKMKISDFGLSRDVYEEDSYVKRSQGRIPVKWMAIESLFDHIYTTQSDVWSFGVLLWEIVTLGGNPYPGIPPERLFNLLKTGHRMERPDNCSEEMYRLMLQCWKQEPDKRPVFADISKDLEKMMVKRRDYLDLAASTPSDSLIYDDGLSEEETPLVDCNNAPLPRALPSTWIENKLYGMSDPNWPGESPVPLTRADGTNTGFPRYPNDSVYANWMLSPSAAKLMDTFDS
Method in brief: as §1

kinases [7] = target: T7, kinases (Homo sapiens, UniProt P00533, L861Q); details: 1 μM; EGFR(L861Q)
T7 construct: purchased Eurofins/DiscoveRx; host or cells: E. coli BL21-derived host (T7 phage display) for most kinases; HEK-293 for the rest
Method in brief: as §1

kinases [8] = target: T8, kinases (Homo sapiens, UniProt P00519, H396P); details: 1 μM
T8 construct: purchased Eurofins/DiscoveRx; host or cells: E. coli BL21-derived host (T7 phage display) for most kinases; HEK-293 for the rest
Method in brief: as §1

kinases [9] = target: T9, kinases (Homo sapiens, UniProt P00519, F317I); details: 1 μM
T9 construct: purchased Eurofins/DiscoveRx; host or cells: E. coli BL21-derived host (T7 phage display) for most kinases; HEK-293 for the rest
Method in brief: as §1

SMILES | % Ctrl, FLT3(K663Q) (kinases [1]) | % Ctrl, ABL1(E255K)-phosphorylated (kinases [2]) | % Ctrl, EGFR(G719C) (kinases [3]) | % Ctrl, KIT(D816V) (kinases [4]) | % Ctrl, EGFR(G719S) (kinases [5]) | % Ctrl, RET(V804L) (kinases [6]) | % Ctrl, EGFR(L861Q) (kinases [7]) | % Ctrl, ABL1(H396P)-nonphosphorylated (kinases [8]) | % Ctrl, ABL1(H396P)-phosphorylated (kinases [8]) | % Ctrl, ABL1(F317I)-nonphosphorylated (kinases [9]) | % Ctrl, ABL1(F317I)-phosphorylated (kinases [9])
Cc1cc2c([nH]1)/C=C1\C(=O)Nc3ccc(cc31)O[C@@H](C)COCCN(C)C2=O [Ex. 92, [10S,16a(17)Z]-2,5,10-trimethyl-6,7,9,10-tetrahydro-1H-12,14-(ethanediylidene)dipyrrolo[3,2-i:3′,4′-l][1,4,7]dioxazacyclopentadecine-4,16(5H,15H)-dione] | 57 % Ctrl | 22 % Ctrl | 100 % Ctrl | 59 % Ctrl | 98 % Ctrl | 43 % Ctrl | 100 % Ctrl | 0.3 % Ctrl | 46 % Ctrl | 22 % Ctrl | 89 % Ctrl
Cc1cc2c([nH]1)/C=C1\C(=O)Nc3ccc(cc31)-c1cnn(C)c1COCCN(C)C2=O [Ex. 124, [3a(4)Z]-6,9,14-trimethyl-10,11,13,14-tetrahydro-2H-1,17-(ethanediylidene)pyrazolo[4,3-m]dipyrrolo[3,2-f:3′,4′-i][1,4]oxazacyclopentadecine-3,8(5H,9H)-dione] | 13 % Ctrl | 0 % Ctrl | 87 % Ctrl | 0.7 % Ctrl | 97 % Ctrl | 0 % Ctrl | 81 % Ctrl | 0.5 % Ctrl | 0 % Ctrl | 0 % Ctrl | 1.5 % Ctrl
Cc1cc2c([nH]1)/C=C1\C(=O)Nc3ccc(cc31)-c1cnn(C)c1CNCCN(C)C2=O [Ex. 125, [3a(4)Z]-6,9,14-trimethyl-9,10,11,12,13,14-hexahydro-1,17-(ethanediylidene)pyrazolo[4,3-m]dipyrrolo[3,2-f:3′,4′-i][1,4]diazacyclopentadecine-3,8(2H,5H)-dione] | 1.4 % Ctrl | 0.05 % Ctrl | 8 % Ctrl | 0.5 % Ctrl | 88 % Ctrl | 0 % Ctrl | 77 % Ctrl | 0 % Ctrl | 0.1 % Ctrl | 0 % Ctrl | 0.75 % Ctrl
Cc1cc2c([nH]1)/C=C1\C(=O)Nc3ccc(cc31)-c1cnn(C)c1CN(C)CCN(C)C2=O [Ex. 126, [3a(4)Z]-6,9,12,14-tetramethyl-9,10,11,12,13,14-hexahydro-1,17-(ethanediylidene)pyrazolo[4,3-m]dipyrrolo[3,2-f:3′,4′-i][1,4]diazacyclopentadecine-3,8(2H,5H)-dione] | 4.2 % Ctrl | 0.55 % Ctrl | 86 % Ctrl | 0.3 % Ctrl | 57 % Ctrl | 0 % Ctrl | 50 % Ctrl | 0 % Ctrl | 0.1 % Ctrl | 0 % Ctrl | 0.3 % Ctrl
Cc1cc2c([nH]1)/C=C1\C(=O)Nc3ccc(cc31)-c1c(C)n[nH]c1CNCCN(C)C2=O [Ex. 127, [3a(4)Z]-6,9,16-trimethyl-9,10,11,12,13,14-hexahydro-1,17-(ethanediylidene)pyrazolo[4,3-m]dipyrrolo[3,2-f:3′,4′-i][1,4]diazacyclopentadecine-3,8(2H,5H)-dione] | 5.3 % Ctrl | 0.1 % Ctrl | 90 % Ctrl | 48 % Ctrl | 72 % Ctrl | 0.55 % Ctrl | 73 % Ctrl | 0 % Ctrl | 0 % Ctrl | 2.6 % Ctrl | 5.5 % Ctrl
Cc1cc2c([nH]1)/C=C1\C(=O)Nc3ccc(cc31)-c1c(noc1C)COCCN(C)C2=O [Ex. 128, [3a(4)Z]-6,9,16-trimethyl-1,11-dihydro-2H,13H-1,17-(ethanediylidene)[1,4]oxazolo[4,3-m]dipyrrolo[3,2-f:3′,4′-i][1,4]oxazacyclopentadecine-3,8(5H,9H)-dione] | 77 % Ctrl | 25 % Ctrl | 97 % Ctrl | 84 % Ctrl | 97 % Ctrl | 56 % Ctrl | 100 % Ctrl | 28 % Ctrl | 51 % Ctrl | 100 % Ctrl | 55 % Ctrl
Cc1cc2c([nH]1)/C=C1\C(=O)Nc3ccc(cc31)OCCOCCNC2=O [Ex. 129, [16a(17)Z]-2-methyl-6,7,9,10-tetrahydro-1H-12,14-(ethanediylidene)dipyrrolo[3,2-i:3′,4′-l][1,4,7]dioxazacyclopentadecine-4,16(5H,15H)-dione] | 100 % Ctrl | 89 % Ctrl | 100 % Ctrl | 93 % Ctrl | 97 % Ctrl | 96 % Ctrl | 81 % Ctrl | 87 % Ctrl | 93 % Ctrl | 94 % Ctrl | 100 % Ctrl
Cc1cc2c([nH]1)/C=C1\C(=O)Nc3cc(Cl)c(cc31)OCCOCCN(C)C2=O [Ex. 131, [16a(17)Z]-19-chloro-2,5-dimethyl-6,7,9,10-tetrahydro-1H-12,14-(ethanediylidene)dipyrrolo[3,2-i:3′,4′-l][1,4,7]dioxazacyclopentadecine-4,16(5H,15H)-dione] | 7.4 % Ctrl | 0 % Ctrl | 93 % Ctrl | 1.2 % Ctrl | 80 % Ctrl | 0 % Ctrl | 78 % Ctrl | 0 % Ctrl | 0 % Ctrl | 0 % Ctrl | 3.5 % Ctrl
Cc1cc2c([nH]1)/C=C1\C(=O)Nc3cc(Cl)c(cc31)OCCO[C@@H](C(=O)NC1CNC1)CN(C)C2=O [Ex. 133, [7R,16a(17)Z]-N-(azetidin-3-yl)-19-chloro-2,5-dimethyl-4,16-dioxo-4,5,6,7,9,10,15,16-octahydro-1H-12,14-(ethanediylidene)dipyrrolo[3,2-i:3′,4′-l][1,4,7]dioxazacyclopentadecine-7-carboxamide] | 77 % Ctrl | 70 % Ctrl | 92 % Ctrl | 34 % Ctrl | 99 % Ctrl | 58 % Ctrl | 97 % Ctrl | 49 % Ctrl | 67 % Ctrl | 93 % Ctrl | 89 % Ctrl
